Test results taken from US12128257B2, “Extracts of Isochrysis sp” (SYMRISE AG, priority 2008, dated 2024).

Test system: hair follicles
Test: Hair follicle growth (elongation) in organ culture of scalp hair follicles, image analysis
Type: cell-based, human
Conditions: Table 7, day 10 of culture, pooled from two donors
Description: For each experiment and the control 9-12 follicles were used, plated at the density of 3 hair follicles/well in 24 well plates. Hair follicles were taken from the head of the scalp and transferred for cultivation in sterile 24 well plates using a modified Williams' Medium E. Cultivation took place for nine days, following 18 h of pre-incubation performed in order to select hair follicles suitable to be maintained in culture. Only those follicles showing a good vital stage and a growth of not less than 0.2 mm were used.
The growth performances observed in the treated hair follicles were compared to a control group, which was cultured in the same culture medium but free from extract supplement.
[…] In order to obtain these supplemented media, the required quantity of dir-MeOH extract was submitted to solvent evaporation and then redissolved again in DMSO. The final concentration of this DMSO-solved extract has been adjusted in order to supplement the experimental media with the desired extract quantity, obtaining at same time a final concentration in DMSO equal to 0.05%. The same concentration of DMSO has also been used in the medium for the culture of the control group.
The experiments were terminated after 10 days of cultivation (9 days of treatment). The growth of the hair follicles was studied by microphotography and subsequently determined by image analysis. All the hair follicles were photographed every two days.
1, were the hair follicle elongation is expressed as percentage ratio between the experimental groups and the untreated control: […]

With `CC/C=C\C/C=C\C/C=C\C/C=C\C/C=C\C/C=C\CCC(=O)O` [DHA, docosahexaenoic acid] the “Growth (%): Elongation in [%] of the control performance” value (“Growth (%): Elongation in [%]” for short) (0.003 μg/ml) was 99.5%, the “Growth (%): Elongation in [%]” value (0.03 μg/ml) was 93.5% and the “Growth (%): Elongation in [%]” value (0.3 μg/ml) was 89.3%.
